Data taken from patent US9587266B2, “Mutant luciferases” (University of Massachusetts, priority 2011, dated 2017).
Where two headings read alike, the source gives them in different places.

Tests used:
Type in all cases: biochemical
[1] = target: T1, WT luciferase (Photinus pyralis, UniProt P08659)
T1 construct: The full firefly (Photinus pyralis) luciferase gene was PCR amplified from pGL3 (Promega); GST (N, cleaved yes); made in house; host or cells: E. coli JM109
Experimental: (§1) Purified mutant luciferases were used in bioluminescence emission and burst kinetics scans. Each purified protein in 20 mM Tris pH 7.6, 0.1 mM EDTA, 1 mM TCEP and 0.4 mg/mL BSA was added to 2× substrate in 20 mM Tris pH 7.6, 0.1 mM EDTA, 8 mM MgSO4, 4 mM ATP, and 1 mM TCEP in a cuvette.
(§2) Luciferase was rapidly injected into a cuvette containing substrate, and the emission from 400-800 nm was recorded in a SPEX FluoroMax-3 fluorimeter with closed excitation slits.

[2] = target: T2, R218K + L342A luciferase (Photinus pyralis, UniProt P08659, L342A/R218K)
T2 construct: The full firefly (Photinus pyralis) luciferase gene was PCR amplified from pGL3 (Promega); GST (N, cleaved yes); made in house; host or cells: E. coli JM109
T2 sequence (P08659 whole entry R218K/L342A): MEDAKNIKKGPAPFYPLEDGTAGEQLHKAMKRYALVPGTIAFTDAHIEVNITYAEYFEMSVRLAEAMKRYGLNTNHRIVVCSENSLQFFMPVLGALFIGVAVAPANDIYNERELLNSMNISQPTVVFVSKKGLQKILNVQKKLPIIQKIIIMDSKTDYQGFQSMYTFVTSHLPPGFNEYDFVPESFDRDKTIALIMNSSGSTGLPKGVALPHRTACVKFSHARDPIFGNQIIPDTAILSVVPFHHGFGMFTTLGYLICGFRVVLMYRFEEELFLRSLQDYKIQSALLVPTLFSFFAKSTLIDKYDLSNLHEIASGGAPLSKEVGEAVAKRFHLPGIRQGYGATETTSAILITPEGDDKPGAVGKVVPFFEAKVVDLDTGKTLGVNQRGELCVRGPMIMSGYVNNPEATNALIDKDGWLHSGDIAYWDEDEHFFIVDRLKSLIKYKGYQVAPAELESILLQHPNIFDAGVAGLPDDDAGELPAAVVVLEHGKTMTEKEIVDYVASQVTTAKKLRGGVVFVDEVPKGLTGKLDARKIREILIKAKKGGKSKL
Experimental: as §1, §2

[3] = target: T1, WT luciferase; assay: Titration assay with purified protein
Experimental: (§3) The PCR product was cloned into the BamH1 and NotI sites of pGEX6P-1 for bacterial expression. Mutant proteins were created using the Quickchange site-directed mutagenesis kit (Stratagene). Saturating mutagenesis was performed using the used the degenerate codon NNK at sites predicted to impact or alter substrate biding including F247, T251, L286, S347, R337, R218, Q338, Y340, A313, and I351 using the degenerate codon NNK. The point mutants S347A, L286A, A348G, E311A, I351A, A313G, R337A, H245A and L342A were made independently.
(§4) Luminescence assays in 96-well plates were initiated by adding 30 μL 2× substrate in 20 mM Tris pH 7.6, 0.1 mM EDTA, 8 mM MgSO4, 4 mM ATP, and 1 mM TCEP to 30 μL of 20 nM purified luciferase in 20 mM Tris pH 7.6, 0.1 mM EDTA, 1 mM TCEP and 0.4 mg/mL BSA. Titration assays were performed 3 minutes post-substrate addition in a Turner Veritas luminometer with final substrate concentrations ranging from 0.122-250 μM or 0.244-500 μM.

[4] = target: T3, S347A/L286M double mutant luciferase (Photinus pyralis, UniProt P08659, L286M/S347A); assay: Titration assay with purified protein; details: sustained light emission
T3 construct: The full firefly (Photinus pyralis) luciferase gene was PCR amplified from pGL3 (Promega); GST (N, cleaved yes); made in house; host or cells: E. coli JM109
T3 sequence (P08659 whole entry L286M/S347A): as the sequence (P08659 whole entry R218K/L342A) above, with K218R, L286M, A342L, S347A counted along it
Experimental: as §3, §4

[5] = target: T4, S347T luciferase (Photinus pyralis, UniProt P08659, S347T); assay: Bioluminescence emission scan
T4 construct: The full firefly (Photinus pyralis) luciferase gene was PCR amplified from pGL3 (Promega); GST (N, cleaved yes); made in house; host or cells: E. coli JM109
T4 sequence (P08659 whole entry S347T): as the sequence (P08659 whole entry R218K/L342A) above, with K218R, A342L, S347T counted along it
Experimental: (§5) Purified mutant luciferases were used in bioluminescence emission and burst kinetics scans.
as §2

[6] = target: T5, L342A luciferase (Photinus pyralis, UniProt P08659, L342A); assay: Bioluminescence emission scan
T5 construct: The full firefly (Photinus pyralis) luciferase gene was PCR amplified from pGL3 (Promega); GST (N, cleaved yes); made in house; host or cells: E. coli JM109
T5 sequence (P08659 whole entry L342A): as the sequence (P08659 whole entry R218K/L342A) above, with K218R counted along it
Experimental: as §5, §2

[7] = target: T6, T251Q luciferase (Photinus pyralis, UniProt P08659, T251Q); assay: Bioluminescence emission scan
T6 construct: The full firefly (Photinus pyralis) luciferase gene was PCR amplified from pGL3 (Promega); GST (N, cleaved yes); made in house; host or cells: E. coli JM109
T6 sequence (P08659 whole entry T251Q): as the sequence (P08659 whole entry R218K/L342A) above, with K218R, T251Q, A342L counted along it
Experimental: as §5, §2

[8] = target: T7, F247V luciferase (Photinus pyralis, UniProt P08659, F247V); assay: Bioluminescence emission scan
T7 construct: The full firefly (Photinus pyralis) luciferase gene was PCR amplified from pGL3 (Promega); GST (N, cleaved yes); made in house; host or cells: E. coli JM109
T7 sequence (P08659 whole entry F247V): as the sequence (P08659 whole entry R218K/L342A) above, with K218R, F247V, A342L counted along it
Experimental: as §5, §2

[9] = target: T8, S347A luciferase (Photinus pyralis, UniProt P08659, S347A); assay: Bioluminescence emission scan
T8 construct: The full firefly (Photinus pyralis) luciferase gene was PCR amplified from pGL3 (Promega); GST (N, cleaved yes); made in house; host or cells: E. coli JM109
T8 sequence (P08659 whole entry S347A): as the sequence (P08659 whole entry R218K/L342A) above, with K218R, A342L, S347A counted along it
Experimental: as §5, §2

[10] = target: T9, F247A luciferase (Photinus pyralis, UniProt P08659, F247A); assay: Bioluminescence emission scan
T9 construct: The full firefly (Photinus pyralis) luciferase gene was PCR amplified from pGL3 (Promega); GST (N, cleaved yes); made in house; host or cells: E. coli JM109
T9 sequence (P08659 whole entry F247A): as the sequence (P08659 whole entry R218K/L342A) above, with K218R, F247A, A342L counted along it
Experimental: as §5, §2

[11] = target: T10, L286M + S347A luciferase (Photinus pyralis, UniProt P08659, L286M/S347A); assay: Bioluminescence emission scan
T10 construct: The full firefly (Photinus pyralis) luciferase gene was PCR amplified from pGL3 (Promega); GST (N, cleaved yes); made in house; host or cells: E. coli JM109
T10 sequence (P08659 whole entry L286M/S347A): as the sequence (P08659 whole entry R218K/L342A) above, with K218R, L286M, A342L, S347A counted along it
Experimental: as §5, §2

[12] = target: T11, L286Y luciferase (Photinus pyralis, UniProt P08659, L286Y); assay: Bioluminescence emission scan
T11 construct: The full firefly (Photinus pyralis) luciferase gene was PCR amplified from pGL3 (Promega); GST (N, cleaved yes); made in house; host or cells: E. coli JM109
T11 sequence (P08659 whole entry L286Y): as the sequence (P08659 whole entry R218K/L342A) above, with K218R, L286Y, A342L counted along it
Experimental: as §5, §2

[13] = target: T12, T251S luciferase (Photinus pyralis, UniProt P08659, T251S); assay: Bioluminescence emission scan
T12 construct: The full firefly (Photinus pyralis) luciferase gene was PCR amplified from pGL3 (Promega); GST (N, cleaved yes); made in house; host or cells: E. coli JM109
T12 sequence (P08659 whole entry T251S): as the sequence (P08659 whole entry R218K/L342A) above, with K218R, T251S, A342L counted along it
Experimental: as §5, §2

[14] = target: T13, I351A luciferase (Photinus pyralis, UniProt P08659, I351A); assay: Bioluminescence emission scan
T13 construct: The full firefly (Photinus pyralis) luciferase gene was PCR amplified from pGL3 (Promega); GST (N, cleaved yes); made in house; host or cells: E. coli JM109
T13 sequence (P08659 whole entry I351A): as the sequence (P08659 whole entry R218K/L342A) above, with K218R, A342L, I351A counted along it
Experimental: as §5, §2

[15] = target: T14, F247L L286M luciferase (Photinus pyralis, UniProt P08659, F247L/L286M); assay: Bioluminescence emission scan
T14 construct: The full firefly (Photinus pyralis) luciferase gene was PCR amplified from pGL3 (Promega); GST (N, cleaved yes); made in house; host or cells: E. coli JM109
T14 sequence (P08659 whole entry F247L/L286M): as the sequence (P08659 whole entry R218K/L342A) above, with K218R, F247L, L286M, A342L counted along it
Experimental: as §5, §2

[16] = target: T15, R218K luciferase (Photinus pyralis, UniProt P08659, R218K); assay: Bioluminescence emission scan
T15 construct: The full firefly (Photinus pyralis) luciferase gene was PCR amplified from pGL3 (Promega); GST (N, cleaved yes); made in house; host or cells: E. coli JM109
T15 sequence (P08659 whole entry R218K): as the sequence (P08659 whole entry R218K/L342A) above, with A342L counted along it
Experimental: as §5, §2

[17] = target: T16, T251S L286M luciferase (Photinus pyralis, UniProt P08659, L286M/T251S); assay: Bioluminescence emission scan
T16 construct: The full firefly (Photinus pyralis) luciferase gene was PCR amplified from pGL3 (Promega); GST (N, cleaved yes); made in house; host or cells: E. coli JM109
T16 sequence (P08659 whole entry T251S/L286M): as the sequence (P08659 whole entry R218K/L342A) above, with K218R, T251S, L286M, A342L counted along it
Experimental: as §5, §2

[18] = target: T17, F247S luciferase (Photinus pyralis, UniProt P08659, F247S); assay: Bioluminescence emission scan
T17 construct: The full firefly (Photinus pyralis) luciferase gene was PCR amplified from pGL3 (Promega); GST (N, cleaved yes); made in house; host or cells: E. coli JM109
T17 sequence (P08659 whole entry F247S): as the sequence (P08659 whole entry R218K/L342A) above, with K218R, F247S, A342L counted along it
Experimental: as §5, §2

[19] = target: T18, T251N luciferase (Photinus pyralis, UniProt P08659, T251N); assay: Bioluminescence emission scan
T18 construct: The full firefly (Photinus pyralis) luciferase gene was PCR amplified from pGL3 (Promega); GST (N, cleaved yes); made in house; host or cells: E. coli JM109
T18 sequence (P08659 whole entry T251N): as the sequence (P08659 whole entry R218K/L342A) above, with K218R, T251N, A342L counted along it
Experimental: as §5, §2

[20] = target: T19, L286M luciferase (Photinus pyralis, UniProt P08659, L286M); assay: Bioluminescence emission scan
T19 construct: The full firefly (Photinus pyralis) luciferase gene was PCR amplified from pGL3 (Promega); GST (N, cleaved yes); made in house; host or cells: E. coli JM109
T19 sequence (P08659 whole entry L286M): as the sequence (P08659 whole entry R218K/L342A) above, with K218R, L286M, A342L counted along it
Experimental: as §5, §2

[21] = target: T20, F247R luciferase (Photinus pyralis, UniProt P08659, F247R); assay: Bioluminescence emission scan
T20 construct: The full firefly (Photinus pyralis) luciferase gene was PCR amplified from pGL3 (Promega); GST (N, cleaved yes); made in house; host or cells: E. coli JM109
T20 sequence (P08659 whole entry F247R): as the sequence (P08659 whole entry R218K/L342A) above, with K218R, F247R, A342L counted along it
Experimental: as §5, §2

[22] = target: T21, T251S mutant luciferase (Photinus pyralis, UniProt P08659, T251S); assay: Titration assay with purified protein
T21 construct: The full firefly (Photinus pyralis) luciferase gene was PCR amplified from pGL3 (Promega); GST (N, cleaved yes); made in house; host or cells: E. coli JM109
T21 sequence (P08659 whole entry T251S): as the sequence (P08659 whole entry R218K/L342A) above, with K218R, T251S, A342L counted along it
Experimental: (§6) The PCR product was cloned into the BamH1 and NotI sites of pGEX6P-1 for bacterial expression. Mutant proteins were created using the Quickchange site-directed mutagenesis kit (Stratagene). Saturating mutagenesis was performed using the used the degenerate codon NNK at sites predicted to impact or alter substrate biding including F247, T251, L286, S347, R337, R218, Q338, Y340, A313, and I351 using the degenerate codon NNK.
(§7) Luminescence assays in 96-well plates were initiated by adding 30 μL 2× substrate in 20 mM Tris pH 7.6, 0.1 mM EDTA, 8 mM MgSO4, 4 mM ATP, and 1 mM TCEP to 30 μL of 20 nM purified luciferase in 20 mM Tris pH 7.6, 0.1 mM EDTA, 1 mM TCEP and 0.4 mg/mL BSA.

[23] = target: T22, L286M mutant luciferase (Photinus pyralis, UniProt P08659, L286M); assay: Titration assay with purified protein
T22 construct: The full firefly (Photinus pyralis) luciferase gene was PCR amplified from pGL3 (Promega); GST (N, cleaved yes); made in house; host or cells: E. coli JM109
T22 sequence (P08659 whole entry L286M): as the sequence (P08659 whole entry R218K/L342A) above, with K218R, L286M, A342L counted along it
Experimental: as §6, §7

[24] = 3 minutes post-substrate addition, read-out: Apparent Km

T1 sequence (P08659 whole entry): as the sequence (P08659 whole entry R218K/L342A) above, with K218R, A342L counted along it

O=C(O)[C@H]1CSC(c2nc3cc4c(cc3s2)NCC4)=N1 [CycLuc1]
Wavelength at Max. Emission ([1]; Table 2): 601 nm
Maximum Emission Wavelength of Selected Substrate ([1]; Table 3): 601 nm
Maximum Emission Wavelength of Selected Substrate [2]: 604 nm
Apparent Vmax [3]: 9.7 ± 0.1 ×10^−5 cps
Km [3, 24]: 0.1 ± 0.01 µM
Vmax higher than wt [4]: 20 fold
Wavelength at Max. Emission [5]: 601 nm
Maximum Emission Wavelength of Selected Substrate [6]: 597 nm
Wavelength at Max. Emission [7]: 612 nm
Wavelength at Max. Emission [8]: 603 nm
Wavelength at Max. Emission [9]: 597 nm
Wavelength at Max. Emission [10]: 605 nm
Maximum Emission Wavelength of Selected Substrate [11]: 595 nm
Wavelength at Max. Emission [12]: 604 nm
Wavelength at Max. Emission [13]: 602 nm
Wavelength at Max. Emission [14]: 604 nm
Wavelength at Max. Emission [15]: 603 nm
Maximum Emission Wavelength of Selected Substrate [16]: 609 nm
Maximum Emission Wavelength of Selected Substrate ([16]; listed as Cyc1): 605 nm
Wavelength at Max. Emission [17]: 601 nm
Wavelength at Max. Emission [18]: 607 nm
Wavelength at Max. Emission [19]: 604 nm
Wavelength at Max. Emission [20]: 591 nm
Wavelength at Max. Emission [21]: 609 nm
Apparent Vmax [22]: 90 ± 0.9 ×10^−5 cps
Km [22, 24]: 1.83 ± 0.09 µM
Apparent Vmax [23]: 60 ± 0.7 ×10^−5 cps
Km [23, 24]: 0.46 ± 0.03 µM
